From patent US20260078130A1, “NAMPT MODULATORS, PREPARATIONS, AND USES THEREOF” (SIRONAX LTD., priority 2022, published 2026)
Like-named read-outs stand apart in the source and are kept apart here.

Assays:
[1] = biological target: T1, human enzyme NAMPT (full length) (Homo sapiens, UniProt P43490); assay: NMN fluorescence biochemical assay (stimulation of NMN synthesis by NAMPT); settings: for EC50: concentration giving half-maximal activation, read-out: Enzymatic EC50; for Enzymatic Emax: fold change of maximal activation compared to DMSO
T1 construct: human enzyme NAMPT (full length)
In short: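 Full-length human NAMPT (100 nM) was preincubated 15 min at 37 °C with compound in 50 mM Tris-HCl pH 7.5, 10 mM MgCl2, 2 mM DTT, then reacted 1 h at 37 °C with 50 μM NAM, 100 μM PRPP, 4 mM ATP (stated solution concentrations). NMN was derivatised with acetophenone/KOH then formic acid and read at Ex/Em 382/445 nm; EC50 and Emax (fold over DMSO) reported.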

[2] = test system: endogenous NAMPT in U2OS cells; assay: Cellular NAD+ modulation assay (NAD/NADH-Glo, U2OS cells); assay type: cell-based; settings: Homo sapiens; for maximal fold induction: read-out: Cellular Emax
In short: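 NAD/NADH-Glo luminescence quantified NAD+ after acid treatment (60 °C, 15 min) and neutralization of DTAB lysates. Beforehand, U2OS cells seeded 16 h earlier received compound concentration series for 24 h at 37 °C. Values given as half-maximal activation concentration (EC50) and maximal fold change versus DMSO (Emax).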

[3] = NMN fluorescence assay, purified human NAMPT 100 nM
[4] = 24 hours incubation, cellular NAD+
[5] = NMN synthesis by purified human NAMPT (100 nM)
[6] = 24 hours incubation with compound

T1 sequence (P43490 whole entry): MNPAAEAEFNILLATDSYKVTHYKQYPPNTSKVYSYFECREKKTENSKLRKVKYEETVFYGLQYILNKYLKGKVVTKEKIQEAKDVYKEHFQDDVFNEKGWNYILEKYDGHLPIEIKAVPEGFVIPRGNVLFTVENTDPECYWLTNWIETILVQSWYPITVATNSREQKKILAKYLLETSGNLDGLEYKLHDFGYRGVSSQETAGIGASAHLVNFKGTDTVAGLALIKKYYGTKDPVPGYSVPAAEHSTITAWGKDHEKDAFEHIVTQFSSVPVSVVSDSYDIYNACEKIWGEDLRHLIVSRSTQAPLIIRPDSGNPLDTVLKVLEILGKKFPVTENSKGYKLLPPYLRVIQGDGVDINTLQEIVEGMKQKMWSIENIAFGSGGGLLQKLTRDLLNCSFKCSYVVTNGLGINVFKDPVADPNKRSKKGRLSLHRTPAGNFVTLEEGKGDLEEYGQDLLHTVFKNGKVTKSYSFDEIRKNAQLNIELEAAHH

| EC50 [1, 3] [µM] | Enzymatic Emax [1] | EC50 [2, 4] [µM] | EC50 [1, 5] [µM] | EC50 [2, 6] [µM] | Structure (SMILES) | maximal fold induction [2, 4] | maximal fold induction [2, 6] |
| --- | --- | --- | --- | --- | --- | --- | --- |
| ≥ 5 | B (3≥B>2) | < 0.5 | – | – | Cn1ncc(Cl)c1CC1c2ccccc2C(=O)N1Cc1cnc(N)s1 (centres unmarked) [Compound 628, 2-((2-aminothiazol-5-yl)methyl)-3-((4-chloro-1-methyl-1H-pyrazol-5-yl)methyl)isoindolin-1-one] | 1.2 to 1.5 | – |
| – | B (3≥B>2) | – | 0.5 to 5 | 0.5 to 5 | Cc1ccc2c(c1)C(=O)N(Cc1ccc(O)cc1)C2=O [Compound 14, 2-(4-hydroxybenzyl)-5-methylisoindoline-1,3-dione] | – | 1.2 to 1.5 |
| – | B (3≥B>2) | – | ≥ 5 | 5 to 50 | O=C1c2cccnc2CN1Cc1ccc(O)cc1 [Compound 39, 6-(4-hydroxybenzyl)-6,7-dihydro-5H-pyrrolo[3,4-b]pyridin-5-one] | – | 1.2 to 1.5 |
| < 0.5 | A (A>3) | < 0.5 | – | – | Cn1ncc(Cl)c1CC1c2cc(CN3CCOCC3)ccc2C(=O)N1Cc1ccc2[nH]nnc2c1 (centres unmarked) [Compound 325, 2-((1H-benzo[d][1,2,3]triazol-5-yl)methyl)-3-((4-chloro-1-methyl-1H-pyrazol-5-yl)methyl)-5-(morpholinomethyl)isoindolin-1-one] | > 1.5 | – |
| – | B (3≥B>2) | – | 0.5 to 5 | 5 to 50 | CC1c2cc(-c3cnco3)ccc2C(=O)N1Cc1ccc2[nH]c(=O)oc2c1 (single isomer, unassigned) [Compound 162] | – | > 1.5 |
| – | B (3≥B>2) | – | 0.5 to 5 | 0.5 to 5 | O=c1[nH]c2ccc(CN3Cc4ccccc4S3(=O)=O)cc2o1 [Compound 9, 6-((1,1-dioxidobenzo[d]isothiazol-2(3H)-yl)methyl)benzo[d]oxazol-2(3H)-one] | – | > 1.5 |
| – | A (A>3) | – | < 0.5 | < 0.5 | O=C1c2ccccc2C(Cc2ncccc2Cl)N1Cc1ccc2[nH]c(=O)oc2c1 (centres unmarked) [Compound 159, 6-((1-((3-chloropyridin-2-yl)methyl)-3-oxoisoindolin-2-yl)methyl)benzo[d]oxazol-2(3H)-one] | – | > 1.5 |
| 0.5 to 5 | B (3≥B>2) | 0.5 to 5 | – | – | Cn1nc(CN2CCOCC2)c(Cl)c1CC1c2ccccc2C(=O)N1CC1CC2(CNC(=O)O2)C1 (centres unmarked) [Compound 522, 2-((1-((4-chloro-1-methyl-3-(morpholinomethyl)-1H-pyrazol-5-yl)methyl)-3-oxoisoindolin-2-yl)methyl)-5-oxa-7-azaspiro[3.4]octan-6-one] | > 1.5 | – |
| – | A (A>3) | – | ≥ 5 | 0.5 to 5 | Cn1cccc(CC2c3ccccc3C(=O)N2Cc2ccc3[nH]c(=O)oc3c2)c1=O (centres unmarked) [Compound 234, 6-((1-((1-methyl-2-oxo-1,2-dihydropyridin-3-yl)methyl)-3-oxoisoindolin-2-yl)methyl) benzo[d]oxazol-2(3H)-one] | – | > 1.5 |
| – | B (3≥B>2) | – | 0.5 to 5 | 5 to 50 | CC1c2cc(NC3CCOCC3)ccc2C(=O)N1Cc1ccc2[nH]c(=O)oc2c1 (centres unmarked) [Compound 95, 6-((3-methyl-1-oxo-5-((tetrahydro-2H-pyran-4-yl)amino)isoindolin-2-yl)methyl)benzo[d]oxazol-2(3H)-one] | – | > 1.5 |
| ≥ 5 | B (3≥B>2) | 0.5 to 5 | – | – | COc1cc(CN2C(=O)c3ccccc3C2Cc2c(Cl)cnn2C)on1 (centres unmarked) [Compound 593, 3-((4-chloro-1-methyl-1H-pyrazol-5-yl)methyl)-2-((3-methoxyisoxazol-5-yl)methyl)isoindolin-1-one] | 1.2 to 1.5 | – |
| 0.5 to 5 | B (3≥B>2) | 0.5 to 5 | – | – | COc1ccc(CN2C(=O)c3c(F)cc(Cl)cc3C2Cc2c(C)ccnc2C#N)cn1 (centres unmarked) [Compound 596, 3-((6-chloro-4-fluoro-2-((6-methoxypyridin-3-yl)methyl)-3-oxoisoindolin-1-yl)methyl)-4-methylpicolinonitrile] | > 1.5 | – |
| 0.5 to 5 | A (A>3) | < 0.5 | – | – | Cn1nnc(Cl)c1CC1c2ccccc2C(=O)N1Cc1ccc2[nH]nnc2c1 (centres unmarked) [Compound 334, 2-((1H-benzo[d][1,2,3]triazol-5-yl)methyl)-3-((4-chloro-1-methyl-1H-1,2,3-triazol-5-yl)methyl)isoindolin-1-one] | > 1.5 | – |
| 0.5 to 5 | B (3≥B>2) | 0.5 to 5 | – | – | COc1ccc(CN2C(=O)c3ccccc3C2Cc2c(C)ncnc2C#N)cn1 (centres unmarked) [Compound 595, 5-((2-((6-methoxypyridin-3-yl)methyl)-3-oxoisoindolin-1-yl)methyl)-6-methylpyrimidine-4-carbonitrile] | > 1.5 | – |
| < 0.5 | A (A>3) | < 0.5 | – | – | Cn1ncc(Cl)c1CC1c2cc(Cl)ccc2C(=O)N1Cc1ccc2[nH]nnc2c1 (centres unmarked) [Compound 354, 2-((1H-benzo[d][1,2,3]triazol-5-yl)methyl)-5-chloro-3-((4-chloro-1-methyl-1H-pyrazol-5-yl)methyl)isoindolin-1-one] | > 1.5 | – |
| – | A (A>3) | – | 0.5 to 5 | 0.5 to 5 | O=C1c2ccccc2C(Cc2ccccn2)N1Cc1ccc2[nH]c(=O)oc2c1 (centres unmarked) [Compound 129, 6-((1-oxo-3-(pyridin-2-ylmethyl)isoindolin-2-yl)methyl)benzo[d]oxazol-2(3H)-one] | – | > 1.5 |

| Structure (SMILES) | EC50 [1, 3] [µM] | Enzymatic Emax [1] | EC50 [2, 4] [µM] | EC50 [1, 5] [µM] | EC50 [2, 6] [µM] | maximal fold induction [2, 4] | maximal fold induction [2, 6] |
| --- | --- | --- | --- | --- | --- | --- | --- |
| COc1ccc(CN2C(=O)c3ccccc3C2(C)Cc2c(Cl)cnn2C)cn1 (centres unmarked) [Compound 620, 3-((4-chloro-1-methyl-1H-pyrazol-5-yl)methyl)-2-((6-methoxypyridin-3-yl)methyl)-3-methylisoindolin-1-one] | ≥ 5 | B (3≥B>2) | 0.5 to 5 | – | – | 1.2 to 1.5 | – |
